Laboratory results taken from the supplement of paper PMC8149375.

Tests used:
Conditions in all cases: treatment: drug alone; 5 days
786-O [1] = assay: minimum viability across doses, drug alone, relative to DMSO (fraction); higher = less growth inhibition
Protocol: (§1)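 Primary HTS: 8 RCC cell lines treated with 8 doses (up to 10 uM) of each library drug alone for 5 days; viability read by CellTiter-Glo and normalised to DMSO. GI50 was fitted with XLfit (4-parameter), AUC is the area under the dose-response curve, and minimum viability is the lowest fraction of DMSO viability across doses.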

UO-31 [2] = assay: as above
Protocol: as §1

A498 [3] = assay: as above
Protocol: as §1

769-P [4] = assay: as above
Protocol: as §1

CAKI-1 [5] = assay: as above
Protocol: as §1

SN12C [6] = assay: as above
Protocol: as §1

TK-10 [7] = assay: as above
Protocol: as §1

ACHN [8] = assay: as above
Protocol: as §1

786-O [9] = assay: AUC of dose-response viability curve, drug alone (arbitrary (AUC of normalised viability)); higher = less growth inhibition
Protocol: as §1

UO-31 [10] = assay: as above
Protocol: as §1

A498 [11] = assay: as above
Protocol: as §1

769-P [12] = assay: as above
Protocol: as §1

CAKI-1 [13] = assay: as above
Protocol: as §1

SN12C [14] = assay: as above
Protocol: as §1

TK-10 [15] = assay: as above
Protocol: as §1

ACHN [16] = assay: as above
Protocol: as §1

786-O [17] = assay: GI50, drug alone; higher = less potent
Protocol: as §1

UO-31 [18] = assay: GI50, drug alone; higher = less potent
Protocol: as §1

A498 [19] = assay: GI50, drug alone; higher = less potent
Protocol: as §1

769-P [20] = assay: GI50, drug alone; higher = less potent
Protocol: as §1

CAKI-1 [21] = assay: GI50, drug alone; higher = less potent
Protocol: as §1

SN12C [22] = assay: GI50, drug alone; higher = less potent
Protocol: as §1

TK-10 [23] = assay: GI50, drug alone; higher = less potent
Protocol: as §1

ACHN [24] = assay: GI50, drug alone; higher = less potent
Protocol: as §1

| SMILES | minimum viability across doses (786-O [1]) | minimum viability across doses (UO-31 [2]) | minimum viability across doses (A498 [3]) | minimum viability across doses (769-P [4]) | minimum viability across doses (CAKI-1 [5]) | minimum viability across doses (SN12C [6]) | minimum viability across doses (TK-10 [7]) | minimum viability across doses (ACHN [8]) | AUC of dose-response viability curve (786-O [9]) | AUC of dose-response viability curve (UO-31 [10]) | AUC of dose-response viability curve (A498 [11]) | AUC of dose-response viability curve (769-P [12]) | AUC of dose-response viability curve (CAKI-1 [13]) | AUC of dose-response viability curve (SN12C [14]) | AUC of dose-response viability curve (TK-10 [15]) | AUC of dose-response viability curve (ACHN [16]) | GI50, drug alone (786-O [17]) | GI50, drug alone (UO-31 [18]) | GI50, drug alone (A498 [19]) | GI50, drug alone (769-P [20]) | GI50, drug alone (CAKI-1 [21]) | GI50, drug alone (SN12C [22]) | GI50, drug alone (TK-10 [23]) | GI50, drug alone (ACHN [24]) |
| --- | --- | --- | --- | --- | --- | --- | --- | --- | --- | --- | --- | --- | --- | --- | --- | --- | --- | --- | --- | --- | --- | --- | --- | --- |
| Cc1n[nH]c2ccc(-c3cncc(OC[C@@H](N)Cc4ccccc4)c3)cc12 | 0.00649 | 0.00834 | 0.0113 | 0.0141 | 0.073 | 0.00861 | 0.141 | 0.00528 | 2.19 | 2.35 | 2.46 | 2.74 | 2.6 | 2.55 | 2.54 | 2.28 | 879 nM | 887 nM | 1160 nM | 2010 nM | 1220 nM | 1430 nM | 1390 nM | 667 nM |
| Cn1c(=O)n(-c2ccc(C(C)(C)C#N)cc2)c2c3cc(-c4cnc5ccccc5c4)ccc3ncc21 [BEZ235 (NVP-BEZ235)] | 0.139 | 0.00561 | 0.0718 | 0.165 | 0.0875 | 0.189 | 0.157 | 0.0714 | 1.74 | 1.69 | 2.03 | 2.02 | 1.99 | 1.96 | 2.11 | 1.86 | 150 nM | 152 nM | 303 nM | 301 nM | 294 nM | 297 nM | 489 nM | 223 nM |
| CN(C)CC[C@H](CSc1ccccc1)Nc1ccc(S(=O)(=O)NC(=O)c2ccc(N3CCN(Cc4ccccc4-c4ccc(Cl)cc4)CC3)cc2)cc1[N+](=O)[O-] [ABT-737] | 0.00151 | 0.00414 | 0.1 | 0.305 | 0.952 | 0.625 | 0.253 | 0.206 | 1.66 | 4.03 | 3.25 | 3.47 | 3.76 | 3.25 | 2.43 | 2.88 | 501 nM | 3080 nM | 5360 nM | 9180 nM | > 10000 nM | > 10000 nM | 4570 nM | 5690 nM |
| CCOc1cc2ncc(C#N)c(Nc3ccc(OCc4ccccn4)c(Cl)c3)c2cc1NC(=O)/C=C/CN(C)C [Neratinib (HKI-272)] | 0.345 | 0.697 | 0.894 | 0.0782 | 0.161 | 0.315 | 0.251 | 0.117 | 2.38 | 4.06 | 3.99 | 2.43 | 2.11 | 2.44 | 1.77 | 1.48 | 756 nM | > 10000 nM | > 10000 nM | 1140 nM | 407 nM | 1350 nM | 161 nM | 77.1 nM |
